Source: patent US20020081661A1 (Synaptic Pharmaceutical Corporation, priority 1992, published 2002)
Where two headings read alike, the source gives them in different places.

Assays:
[1] = molecular target: T1, rat 5-HT4 receptor S10-95 (CG-8) (Rattus norvegicus, UniProt Q62758); test: [3H]GR113808 binding (saturation and displacement), COS-7 membranes, rat clone CG-8; set-up: two individual full length cDNA clones, S10-87 and S10-95, were isolated; expressed in transfected cells; host or cells: COS-7 (transient, DEAE-dextran); conditions: for effect on [3H]GR113808 binding: CG-8, concentrations up to 1 μM
Experimental: (§2) Membrane Preparation: Membranes were prepared from transiently transfected COS-7 cells which were grown to 100% confluence. The cells were washed twice with phosphate-buffered saline, scraped from the culture dishes into 5 ml of ice-cold phosphate-buffered saline, and centrifuged at 200×g for 5 min at 4′. The pellet was resuspended in 2.5 ml of ice-cold Tris buffer (20 mM Tris -HCl, pH 7.4 at 23°, 5 mM EDTA), and homogenized by a Wheaton tissue grinder. The lysate was subsequently centrifuged at 200×g for 5 min at 4° to pellet large fragments which were discarded. The supernatant was collected and centrifuged at 40,000×g for 20 min at 4°. The pellet resulting from this centrifugation was washed once in ice-cold Tris wash buffer and finally resuspended in a final buffer containing 50 mM Tris-HCl and 0.5 mM EDTA, pH 7.4 at 23°. Membrane preparations were kept on ice and utilized within two hr for the radioligand binding assays.
(§3) The binding profile of drugs in competition experiments was established using 10-12 concentrations of compound. Incubation times were 30 min for both saturation and displacement studies.

[2] = molecular target: T2, rat 5-HT4 receptor S10-87 (CG-7) (Rattus norvegicus, UniProt Q62758); test: [3H]GR113808 binding (saturation and displacement), COS-7 membranes, rat clone CG-7; set-up: two individual full length cDNA clones, S10-87 and S10-95, were isolated; expressed in transfected cells; host or cells: COS-7 (transient, DEAE-dextran); conditions: for effect on [3H]GR113808 binding: CG-7, concentrations up to 1 μM
Experimental: as §2, §3

[3] = molecular target: T3, human 5-HT4 receptor S10-95 (CG-17) (Homo sapiens, UniProt Q13639); test: [3H]5-HT displacement binding, human CG-17 clone; conditions: for activity at the CG-17 clone: [3H]5-HT displacement, up to concentration of 1 μM; for fold higher affinity for the human CG-17 clone: human CG-17 compared with rat clones
T3 construct: Isolation of the full length human S10-95 cDNA clone; expressed in transfected cells; host or cells: COS-7 (transient, DEAE-dextran)
Experimental: as §2
(§4) The binding profile of drugs in competition experiments was established using 7 concentrations of compound. Incubation times were 30 min for both saturation and displacement studies. […] Binding was initiated by the addition of 50 μl membrane homogenates (10-20 μg). The reaction was terminated by rapid filtration through presoaked (0.5% polyethyleneimine) filters using 48R Cell Brandel Harvester (Gaithersburg, Md.). Subsequently, filters were washed for 5 sec with ice cold buffer (50 mM Tris HCL, pH 7.4 at 4° C.), dried and placed into vials containing 2.5 ml of Readi-Safe (Beckman, Fullerton, Calif.), and radioactivity was measured using a Beckman LS 6500C liquid scintillation counter. […] Binding data were analyzed by computer-assisted nonlinear regression analysis (Accufit and Accucomp, Lundon Software, Chagrin Falls, Ohio).

[4] = molecular target: T2, rat 5-HT4 receptor S10-87 (CG-7); test: [3H]5-HT radioligand binding (saturation and displacement), membranes of Cos-7 cells transiently expressing rat S10-87 (CG-7)
Experimental: as §2, §4

[5] = molecular target: T4, 5-HT4 receptor, rat oesophagus (Rattus norvegicus, UniProt Q62758); conditions: Grossmann et al., 1993; cited from earlier work
T4 construct: host or cells: rat oesophagus

[6] = molecular target: T5, rat 5-HT4 (CG-8) receptor (Rattus norvegicus, UniProt Q62758); test: cAMP formation in intact Cos-7 cells transiently expressing CG-8; type: cell-based; conditions: for effect on responses to 5-HT: CG-8, 10 μM; for agonist / antagonist character: CG-8, cAMP response; for I. A. (intrinsic activity): CG-8, maximum response normalized to 5-HT maximum = 1.0
T5 construct: two individual full length cDNA clones, S10-87 and S10-95, were isolated; expressed in transfected cells; host or cells: COS-7 (transient, DEAE-dextran)
Experimental: (§1) Measurement of cAMP Formation: The transiently transfected Cos-7 cells were incubated in Dulbecco's modified Eagle's medium, 5 mM theophylline, 10 mM Hepes (4-[2-Hydroxyethyl]-1-piperazineethanesulfonic acid), 10 μM pargyline, and/or appropriate concentrations of antagonists for 20 minutes at 37° C., 5% CO2. […] The media was aspirated and the reaction stopped by the addition of 100 mM HCl. The plates were stored at 4° C. for 15 minutes, centrifuged for 5 minutes, 500×g to pellet cellular debris, and the supernatant aliquotted and stored at −20° C. prior to assessment of cAMP formation by radioimmunoassay (cAMP Radioimmunoassay kit, Advanced Magnetics, Cambridge, Mass.). Radioactivity was quantitated using a Packard COBRA Auto Gamma Counter equipped with data reduction software. Functional data was fitted to a four parameter logistic equation to obtain response parameters (EC50, Emax, nH; Inplot, GraphPad, San Diego, Calif.).

[7] = molecular target: T6, rat 5-HT4 (CG-7) receptor (Rattus norvegicus, UniProt Q62758); test: cAMP formation in intact Cos-7 cells transiently expressing CG-7; type: cell-based; conditions: for effect on responses to 5-HT: CG-7, 10 μM; for agonist / antagonist character: CG-7, cAMP response; for I. A. (intrinsic activity): CG-7, maximum response normalized to 5-HT maximum = 1.0
T6 construct: two individual full length cDNA clones, S10-87 and S10-95, were isolated; expressed in transfected cells; host or cells: COS-7 (transient, DEAE-dextran)
Experimental: as §1

[8] = molecular target: T1, rat 5-HT4 receptor S10-95 (CG-8); test: biochemical
Experimental: For transient expression, Cos-7 cells were transfected by the DEAE-Dextran method, using 1 μg of DNA /10^6 cells (Warden, D. and H. V. Thorne, 1968).
Membrane Preparation: Membranes were prepared from transiently transfected COS-7 cells which were grown to 100% confluence. The cells were washed twice with phosphate-buffered saline, scraped from the culture dishes into 5 ml of ice-cold phosphate-buffered saline, and centrifuged at 200×g for 5 min at 4′. The pellet was resuspended in 2.5 ml of ice-cold Tris buffer (20 mM Tris -HCl, pH 7.4 at 23°, 5 mM EDTA), and homogenized by a Wheaton tissue grinder. The lysate was subsequently centrifuged at 200×g for 5 min at 4° to pellet large fragments which were discarded. The supernatant was collected and centrifuged at 40,000×g for 20 min at 4°. The pellet resulting from this centrifugation was washed once in ice-cold Tris wash buffer and finally resuspended in a final buffer containing 50 mM Tris-HCl and 0.5 mM EDTA, pH 7.4 at 23°. Membrane preparations were kept on ice and utilized within two hr for the radioligand binding assays. Protein concentrations were determined by the method of Bradford (1976) using bovine serum albumin as the standard.
The binding profile of drugs in competition experiments was established using 7 concentrations of compound. Incubation times were 30 min for both saturation and displacement studies. […] Binding was initiated by the addition of 50 μl membrane homogenates (10-20 μg). The reaction was terminated by rapid filtration through presoaked (0.5% polyethyleneimine) filters using 48R Cell Brandel Harvester (Gaithersburg, Md.). Subsequently, filters were washed for 5 sec with ice cold buffer (50 mM Tris HCL, pH 7.4 at 4° C.), dried and placed into vials containing 2.5 ml of Readi-Safe (Beckman, Fullerton, Calif.), and radioactivity was measured using a Beckman LS 6500C liquid scintillation counter. […] Binding data were analyzed by computer-assisted nonlinear regression analysis (Accufit and Accucomp, Lundon Software, Chagrin Falls, Ohio). […]

[9] = molecular target: T7, 5-HT4 receptors, human brain (Homo sapiens, UniProt Q13639); conditions: Waeber et al. (1993); cited from earlier work
T7 construct: host or cells: human brain tissue

[10] = molecular target: T3, human 5-HT4 receptor S10-95 (CG-17); test: [3H]GR113808 saturation binding, human clone CG-17; conditions: human CG-17, [3H]GR113808 0.005-[…], preliminary; read-out: Kd (saturation analysis)
Experimental: as §2, §3

[11] = molecular target: T8, 5-HT4 receptors, guinea pig brain tissue (Cavia porcellus, UniProt O70528); conditions: Waeber et al., 1993, Grossmann et al.; cited from earlier work
T8 construct: host or cells: guinea pig brain tissue

[12] = CG-8, 0.2-0.4 nM [3H]GR113808, single experiment, read-out: Affinity estimate K1
[13] = CG-7, 0.2-0.4 nM [3H]GR113808, single experiment, read-out: Affinity estimate K1
[14] = Affinity constants (Ki), CG-7, 10 nM [3H]5-HT, mean ± SEM, >1000 estimated from one point displacement at 1 uM
[15] = K1 (nM), CG-7, binding data using [3H]5-HT, Table 4
[16] = CG-8, stimulation of basal cAMP release, means ± S.E.M. of three experiments, read-out: EC50
[17] = CG-7, stimulation of basal cAMP release
[18] = CG-7, stimulation of basal cAMP release, means ± S.E.M. of three experiments, read-out: EC50
[19] = read-out: Ks (apparent dissociation constant of antagonist)
[20] = CG-8, stimulation of basal cAMP release

T3 sequence (Q13639 whole entry): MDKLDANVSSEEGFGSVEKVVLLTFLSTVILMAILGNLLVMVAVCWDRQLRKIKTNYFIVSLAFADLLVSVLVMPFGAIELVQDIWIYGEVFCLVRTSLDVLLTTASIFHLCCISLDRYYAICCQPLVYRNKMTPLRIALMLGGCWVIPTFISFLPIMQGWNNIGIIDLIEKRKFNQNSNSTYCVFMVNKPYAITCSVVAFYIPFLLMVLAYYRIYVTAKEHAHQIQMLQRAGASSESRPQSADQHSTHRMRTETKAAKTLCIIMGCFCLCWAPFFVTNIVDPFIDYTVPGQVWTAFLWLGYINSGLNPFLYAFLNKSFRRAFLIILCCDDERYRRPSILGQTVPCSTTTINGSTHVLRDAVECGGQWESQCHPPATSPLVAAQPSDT
T6 sequence (Q62758 1-387 isoform Q62758-2): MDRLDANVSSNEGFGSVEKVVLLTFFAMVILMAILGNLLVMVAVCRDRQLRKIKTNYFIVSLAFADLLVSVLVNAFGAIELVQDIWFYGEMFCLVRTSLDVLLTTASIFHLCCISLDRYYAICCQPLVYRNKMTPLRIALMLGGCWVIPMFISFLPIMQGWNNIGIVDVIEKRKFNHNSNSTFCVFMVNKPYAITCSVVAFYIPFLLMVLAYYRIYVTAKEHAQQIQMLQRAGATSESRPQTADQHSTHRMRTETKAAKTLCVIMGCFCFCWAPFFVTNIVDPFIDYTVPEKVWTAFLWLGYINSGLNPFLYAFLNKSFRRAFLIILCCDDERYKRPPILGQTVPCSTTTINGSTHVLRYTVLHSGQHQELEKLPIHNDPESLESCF
T2 sequence (Q62758 1-387 isoform Q62758-2): as above
T1 sequence (Q62758 whole entry): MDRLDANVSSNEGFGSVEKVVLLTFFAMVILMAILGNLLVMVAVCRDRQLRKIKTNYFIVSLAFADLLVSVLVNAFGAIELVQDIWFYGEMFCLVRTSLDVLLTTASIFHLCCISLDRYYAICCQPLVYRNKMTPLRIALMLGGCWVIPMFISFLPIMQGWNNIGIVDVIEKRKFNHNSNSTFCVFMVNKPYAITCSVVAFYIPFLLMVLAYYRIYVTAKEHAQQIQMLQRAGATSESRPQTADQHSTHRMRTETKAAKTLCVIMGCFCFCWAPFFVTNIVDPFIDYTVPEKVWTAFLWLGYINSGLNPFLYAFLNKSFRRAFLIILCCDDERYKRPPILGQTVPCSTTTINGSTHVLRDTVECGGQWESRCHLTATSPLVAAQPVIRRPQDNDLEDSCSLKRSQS
T5 sequence (Q62758 whole entry): as above
T7 sequence (Q13639 whole entry): as the sequence (Q13639 whole entry) above
T4 sequence (Q62758 whole entry): as the sequence (Q62758 whole entry) above
T8 sequence (O70528 whole entry): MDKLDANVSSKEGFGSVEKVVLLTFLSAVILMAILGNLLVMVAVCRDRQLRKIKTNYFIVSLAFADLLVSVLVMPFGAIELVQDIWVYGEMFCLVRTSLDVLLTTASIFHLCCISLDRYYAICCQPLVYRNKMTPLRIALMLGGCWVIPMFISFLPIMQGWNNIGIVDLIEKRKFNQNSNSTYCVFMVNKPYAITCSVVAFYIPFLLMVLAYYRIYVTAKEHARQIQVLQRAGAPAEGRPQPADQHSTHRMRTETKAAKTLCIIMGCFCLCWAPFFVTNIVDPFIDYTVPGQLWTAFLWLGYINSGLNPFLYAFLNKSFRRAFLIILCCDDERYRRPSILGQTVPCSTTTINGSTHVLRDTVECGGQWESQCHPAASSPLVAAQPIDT

## CCN(CC)C(=O)[C@@H]1C=C2c3cccc4[nH]cc(c34)C[C@H]2N(C)C1 [d-LSD]
[1]; [12]
  Ki: > 10 µM
[2]; [13]
  Ki: > 10 µM

## CNS(=O)(=O)Cc1ccc2[nH]cc(CCN(C)C)c2c1 [Sumatriptan, sumatriptan]
[1]
  effect on [3H]GR113808 binding: no effect
[3]
  activity at the CG-17 clone: inactive
[3]; read-out: Ki
  Ki: > 1 µM
[4]
  Ki: > 1000 nM
[4]; [14]
  Ki: > 1000 nM
[2]
  effect on [3H]GR113808 binding: no effect

## Cn1cc(C(=O)OCC2CCN(CCNS(C)(=O)=O)CC2)c2ccccc21 [GR113808]
[5]
  affinity from functional receptor assays: about 0.3 nM

## O=C(CCCN1CCC2(CC1)C(=O)NCN2c1ccccc1)c1ccc(F)cc1 [spiperone]
[6]
  effect on responses to 5-HT: not affected
[7]
  effect on responses to 5-HT: not affected

## COc1cc(N)c(Cl)cc1C(=O)NC1CCN(CCCOc2ccc(F)cc2)CC1OC (centres unmarked) [Cisapride, cisapride]
[1]; [12]
  Ki: 0.084 µM
[1]; CG-8, [3H]GR113808
  BH (percentage of high affinity sites): 11%
  nH (Hill coefficient): nH = 0.83
[1]; CG-8, [3H]GR113808, read-out: KH (affinity for the high affinity state)
  Ki: 0.0027 µM
[1]; read-out: KL (affinity for the low affinity state), CG-8, [3H]GR113808
  Ki: 0.105 µM
[4]; [14]
  Ki: 10.9 ± 0.3 nM
[4]; [15]
  Ki: 11 ± 0.3 nM
[6]
  agonist / antagonist character: partial agonists
  I. A. (intrinsic activity): 1.4
[6]; [16]
  EC50: 0.413 ± 0.199 µM
[7]
  agonist / antagonist character: partial agonists
  I. A. (intrinsic activity): 1.2
[7]; [17]
  times less potent than 5-HT: about 10 fold
[7]; [18]
  EC50: 0.191 ± 0.026 µM

## CN1[C@@H]2CC[C@H]1C[C@@H](OC(=O)c1c[nH]c3ccccc13)C2 [ICS 205930]
[1]; [12]
  Ki: 0.529 µM
[4]; [14]
  Ki: 115 ± 12 nM
[4]; [15]
  Ki: 115 ± 12 nM
[8]
  Ki: 0.138 ± 0.026 µM
[6]; CG-8
  fold lower affinity in the functional assay as compared to the binding experiments: approximately 6 fold
[6]
  agonist / antagonist character: silent antagonist
  I. A. (intrinsic activity): 0
[6]; [19]
  Kd: 0.607 ± 0.03 µM
[7]; CG-7
  fold lower affinity in the functional assay as compared to the binding experiments: ~10 fold
[7]
  agonist / antagonist character: silent antagonist
  I. A. (intrinsic activity): 0
[7]; [19]
  Kd: 0.962 ± 0.244 µM

## O=C(c1ccc(F)cc1)C1CCN(CCn2c(=O)[nH]c3ccccc3c2=O)CC1 [Ketanserin, ketanserin]
[1]
  effect on [3H]GR113808 binding: no effect
[3]
  activity at the CG-17 clone: inactive
[3]; read-out: Ki
  Ki: > 1 µM
[4]
  Ki: > 1000 nM
[4]; [14]
  Ki: > 1000 nM
[2]
  effect on [3H]GR113808 binding: no effect

## NCCc1c[nH]c2ccc(O)cc12 [5-HT, serotonin]
[1]; CG-8, [3H]GR113808
  BH (percentage of high affinity sites): 24%
  nH (Hill coefficient): nH = 0.67
[2]; CG-7, [3H]GR113808
  BH (percentage of high affinity sites): 22%
  nH (Hill coefficient): nH = 0.62
[6]; CG-8, 1 μM, single dose preliminary study
  stimulation of basal cAMP release: about 30 fold
[6]; CG-8, FIG. 10
  maximum cAMP release: 0.57±0.04 pmol/ml/10 min
[6]
  I. A. (intrinsic activity): 1.0
[7]; CG-7, 1 μM, single dose preliminary study
  stimulation of basal cAMP release: about 30 fold
[7]; CG-7, FIG. 9
  maximum cAMP release: 0.42±0.03 pmol/ml/10 min
[7]
  I. A. (intrinsic activity): 1.0

## CCCN(CCC)C1CCc2cccc(O)c2C1 (centres unmarked) [8-OH-DPAT, 8-hydroxy-2-(di-n-propylamino)tetralin]
[1]
  effect on [3H]GR113808 binding: no effect
[3]
  Ki: > 1 µM
  activity at the CG-17 clone: inactive
[4]
  Ki: > 1000 nM
[4]; [14]
  Ki: > 1000 nM
[2]
  effect on [3H]GR113808 binding: no effect

## Cn1cc(C(=O)OCC2CCN(CCNS(C)(=O)=O)CC2)c2ccccc21 [[^3H]GR113808]
[9]
  Kd: 0.00023 to 0.00037 µM
[10]
  Kd: 0.0002 µM
[11]
  Kd: 0.00013 to 0.0002 µM

## CC(N)Cc1c[nH]c2ccc(O)cc12 (stereo not drawn) [α-Me-5-HT]
[1]; [12]
  Ki: 1.85 µM
[3]; human CG-17, 10 nM [3H]5-HT, single experiment, >1,000 from one point displacement at 1 μM, read-out: Ki
  Ki: 0.0016 µM
[3]
  fold higher affinity for the human CG-17 clone: approximately 100 fold
[2]; [13]
  Ki: 2.25 µM
[6]
  I. A. (intrinsic activity): 1.0
[6]; [20]
  fold lower affinity than 5-HT: approximately 20 fold
[6]; [16]
  EC50: 1.04 µM
[7]
  I. A. (intrinsic activity): 0.90
[7]; [17]
  times less potent than 5-HT: about 10 fold
[7]; [18]
  EC50: 0.25 ± 0.091 µM

## CSc1ccc2c(c1)C(N1CCN(C)CC1)Cc1ccccc1S2 (centres unmarked) [methiothepin]
[6]
  effect on responses to 5-HT: not affected
[7]
  effect on responses to 5-HT: not affected

## NCCc1c[nH]c2ccc(C(N)=O)cc12 [5-CT, 5-carboxyamidotryptamine]
[1]
  Ki: > 10 µM
[3]
  Ki: > 10 µM
[4]; [14]
  Ki: > 1000 nM
[4]; [15]
  Ki: > 1000 nM
[4]; Kf values estimated, S10, [3H]5-HT displacement, low affinity compounds
  Ki: > 1000 nM
[2]; [13]
  Ki: > 10 µM
[6]
  EC50: 1.41 µM
  I. A. (intrinsic activity): 1.2
[6]; [20]
  fold lower affinity than 5-HT: about 30 fold
[7]
  EC50: 5.57 µM
  I. A. (intrinsic activity): 0.85
[7]; [17]
  times less potent than 5-HT: ~200 fold

## COc1ccc2[nH]cc(CCN)c2c1 [5-MeOT, 5-methoxytryptamine]
[1]
  Ki: 0.518 µM
[1]; CG-8, [3H]GR113808
  nH (Hill coefficient): nH = 0.66
[3]
  Ki: 0.071 µM
  fold higher affinity for the human CG-17 clone: ~5 fold
[3]; human CG-17 compared to the rat clones
  fold less potent at the human CG-17: approximately 3 fold
[4]; [14]
  Ki: 27.5 ± 5 nM
[4]; [15]
  Ki: 27 ± 5 nM
[2]; Affinity estimate K1, CG-7, 0.2-0.4 nM [3H]GR113808, single experiment
  Ki: 0.438 µM
[2]; CG-7, [3H]GR113808
  BH (percentage of high affinity sites): 17%
  nH (Hill coefficient): nH = 0.57
[2]; KH (affinity for the high affinity state), CG-7, [3H]GR113808
  Ki: 0.014 µM
[2]; read-out: KL (affinity for the low affinity state), CG-7, [3H]GR113808
  Ki: 0.658 µM
[6]
  EC50: 0.031 ± 0.013 µM
  I. A. (intrinsic activity): 1.0
[6]; [20]
  fold lower affinity than 5-HT: approximately equipotent
[7]
  EC50: 0.021 ± 0.006 µM
  I. A. (intrinsic activity): 1.0
[7]; [17]
  times less potent than 5-HT: approximately equipotent
